For the assay, the system named is HIV-1 single-round infectious reporter virus. The assay can be described thus: Single-round infectious HIV-1 luciferase reporter virus infection of HeLa CD4 cells (antiviral EC50). Format: cell-based. As to conditions: Human immunodeficiency virus 1, HeLa, 72 h, read-out: EC50 Group from Table 1. The procedure: • Virus production—Human embryonic Kidney cell line, 293T, was propagated in Dulbecco's Modified Eagle Medium (Invitrogen, Carlsbad, Calif.) containing 10% fetal Bovine serum (FBS, Sigma, St. Louis, Mo.). • Virus infection—Human epithelial cell line, HeLa, expressing the HIV-1 receptor CD4 was propagated in Dulbecco's Modified Eagle Medium (Invitrogen, Carlsbad, Calif.) containing 10% fetal Bovine serum (FBS, Sigma, St. Louis, Mo.) and supplemented with 0.2 mg/mL Geneticin (Invitrogen, Carlsbad, Calif.). Virus-Single-round infectious reporter virus was produced by co-transfecting human embryonic Kidney 293 cells with an HIV-1 envelope DNA expression vector and a proviral cDNA containing an envelope deletion mutation and the luciferase reporter gene inserted in place of HIV-1 nef sequences (Chen et al, Ref. 41). Transfections were performed using lipofectAMINE PLUS reagent as described by the manufacturer (Invitrogen, Carlsbad, Calif.).
• 1. HeLa CD4 cells were plated in 96 well plates at a cell density of 1×10^4 cells per well in 100 μl Dulbecco's Modified Eagle Medium containing 10% fetal Bovine serum and incubated overnight. • 2. Compound was added in a 2 μl dimethylsulfoxide solution, so that the final assay concentration would be ≦10 μM. • 3. 100 μl of single-round infectious reporter virus in Dulbecco's Modified Eagle Medium was then added to the plated cells and compound at an approximate multiplicity of infection (MOI) of 0.01, resulting in a final volume of 200 μl per well. • 4. Virally-infected cells were incubated at 37 degrees Celsius, in a CO2 incubator, and harvested 72 h after infection. • 5. Viral infection was monitored by measuring luciferase expression from viral DNA in the infected cells using a luciferase reporter gene assay kit, as described by the manufacturer (Roche Molecular Biochemicals, Indianapolis, Ind.). Infected cell supernatants were removed and 50 μl of lysis buffer was added per well. After 15 minutes, 50 μl of freshly-reconstituted luciferase assay reagent was added per well. Luciferase activity was then quantified by measuring luminescence using a Wallac microbeta scintillation counter. • 6. The percent inhibition for each compound was calculated by quantifying the level of luciferase expression in cells infected in the presence of each compound as a percentage of that observed for cells infected in the absence of compound and subtracting such a determined value from 100. • 7. An EC50 provides a method for comparing the antiviral potency of the compounds of this invention. The effective concentration for fifty percent inhibition (EC50) was calculated with the Microsoft Excel Xlfit curve fitting software. For each compound, curves were generated from percent inhibition calculated at 10 different concentrations by using a four paramenter logistic model (model 205). Table 1 is the key for the data in Table 2.
Regarding `COc1cnc(-n2cnc(C)n2)c2[nH]cc(C(=O)C(=O)N3CCC(=C(c4ccccc4)c4cn(C)cn4)CC3)c12` [Example 136, 1-[4-(1-Phenyl-1-(1-methylimidazol-4-yl)-methylene)-piperidin-1-yl]-2-(4-methoxy-7-(3-methyl-1,2,4-triazol-1-yl)-6-azaindol-3-yl)-ethane-1,2-dione], the EC50 was less than 1 µM. For the molecule `COc1ncc(OC)c2c(C(=O)C(=O)N3CCC(=C(c4ccccc4)c4cc(C)cs4)CC3)c[nH]c12` [Example 55], the EC50 is less than 1 µM.

For `COc1cnc(-n2ccnn2)c2[nH]cc(C(=O)C(=O)N3CCC(=C(c4ccccc4)c4nnc(C)o4)CC3)c12` [Example 73, 1-[4-(1-Phenyl-1-(5-methyl-1,3,4-oxadiazol-2-yl)-methylene)-piperidin-1-yl]-2-[4-methoxy-7-(1,2,3-triazol-1-yl)-6-azaindol-3-yl]-ethane-1,2-dione], the EC50 is less than 1 µM. The same measure for `COc1ncc(OC)c2c(C(=O)C(=O)N3CCC(=C(c4ccccc4)c4nnco4)CC3)c[nH]c12` [Example 51, 1-[4-(1-Phenyl-1-(1,3,4-oxadiazol-2-yl)-methylene)-piperidin-1-yl]-2-(4,7-dimethoxy-6-azaindol-3-yl)-ethane-1,2-dione]: less than 1 µM. The same measure for `COc1cnc(-n2ccc(C)n2)c2[nH]cc(C(=O)C(=O)N3CCC(=C(c4ccccc4)c4cccc(F)c4)CC3)c12` [Example 98]: less than 1 µM; for `COc1ncc(OC)c2c(C(=O)C(=O)N3CCC(=C(C#N)c4nnc(-c5ccccc5)o4)CC3)c[nH]c12` [Example 122, 1-[4-(1-Cyano-1-(5-phenyl-1,3,4-oxadiazol-2-yl)-methylene)-piperidin-1-yl]-2-(4,7-dimethoxy-6-azaindol-3-yl)-ethane-1,2-dione]: greater than 5 µM; for `COc1cnc(-n2cnc(C)n2)c2[nH]cc(C(=O)C(=O)N3CCC(=C(c4ccccc4)c4cc(F)cc(F)c4)CC3)c12` [Example 85, 1-[4-(1-Phenyl-1-(3,5-difluorophenyl)-methylene)-piperidin-1-yl]-2-[4-methoxy-7-(3-methyl-1,2,4-triazol-1-yl)-6-azaindol-3-yl]-ethane-1,2-dione]: less than 1 µM. The figure for `COc1ncc(OC)c2c(C(=O)C(=O)N3CCC(=C(Cl)c4ccccc4)CC3)c[nH]c12` [Example 5] is less than 1 µM; for `COc1ncc(OC)c2c(C(=O)C(=O)N3CCC(=C(c4ccccc4)c4ccc(F)cc4)CC3)c[nH]c12` [Example 64] it is less than 1 µM; for `C#CC(=C1CCN(C(=O)C(=O)c2c[nH]c3c(OC)ncc(OC)c23)CC1)c1ccccc1` [Example 113, 1-[4-(1-Phenyl-1-ethynyl-methylene)-piperidin-1-yl]-2-(4,7-dimethoxy-6-azaindol-3-yl)-ethane-1,2-dione] it is less than 1 µM. Turning to `COc1cnc(-n2cnc(C)n2)c2[nH]cc(C(=O)C(=O)N3CCC(=C(c4ccccc4)c4cccc(CO)c4)CC3)c12` [Example 84, 1-[4-(1-Phenyl-1-(3-hydroxymethylphenyl)-methylene)-piperidin-1-yl]-2-[4-methoxy-7-(3-methyl-1,2,4-triazol-1-yl)-6-azaindol-3-yl]-ethane-1,2-dione], the EC50 is less than 1 µM. The figure for `COc1ncc(OC)c2c(C(=O)C(=O)N3CCC(=C(C#N)c4nc5ccccc5s4)CC3)c[nH]c12` [Example 123, 1-[4-(1-Cyano-1-benzothiazol-2-yl-methylene)-piperidin-1-yl]-2-(4,7-dimethoxy-6-azaindol-3-yl)-ethane-1,2-dione] is greater than 5 µM.

For the molecule `N#CC(=C1CCN(C(=O)C(=O)c2c[nH]c3c(-c4cnccn4)ccnc23)CC1)c1ccccc1` [Example 102, {1-[2-Oxo-2-(7-pyrazin-2-yl-1H-pyrrolo[3,2-b]pyridin-3-yl)-acetyl]-piperidin-4-ylidene}-phenyl-acetonitrile], the half-maximal effective concentration (EC50) was less than 1 µM. The figure for `COc1ncc(OC)c2c(C(=O)C(=O)N3CCC(=C(c4ccccc4)c4ccc(C#N)cc4)CC3)c[nH]c12` [Example 59] is less than 1 µM; for `COc1cnc(-c2cnccn2)c2[nH]cc(C(=O)C(=O)N3CCC(=C(c4ccccc4)c4cccnc4)CC3)c12` [Example 71, 1-[4-(1-Phenyl-1-(pyridin-3-yl)-methylene)-piperidin-1-yl]-2-(4-methoxy-7-pyrazinyl-6-azaindol-3-yl)-ethane-1,2-dione] it is less than 1 µM.

Consider `COc1ccnc2[nH]cc(C(=O)C(=O)N3CCC(=C(F)c4ccccc4)CC3)c12` [Example 10], for which the concentration giving a half-maximal response (EC50) is less than 1 µM. The figure for `COc1cnc(Cl)c2[nH]cc(C(=O)C(=O)N3CCC(=C(C(N)=O)c4ccccc4)CC3)c12` [Example 48] is 1 to 5 µM; for `COc1cnc(-n2ccc(C)n2)c2[nH]cc(C(=O)C(=O)N3CCC(=C(c4ccccc4)c4cnccn4)CC3)c12` [Example 96] it is less than 1 µM.

Turning to `COc1cnc(-n2ccnn2)c2[nH]cc(C(=O)C(=O)N3CCC(=C(c4ccccc4)c4nnc(C(C)C)o4)CC3)c12` [Example 75, 1-[4-(1-Phenyl-1-(5-isopropyl-1,3,4-oxadiazol-2-yl)-methylene)-piperidin-1-yl]-2-[4-methoxy-7-(1,2,3-triazol-1-yl)-6-azaindol-3-yl]-ethane-1,2-dione], the EC50 was less than 1 µM. The same measure for `COc1cnc(-n2cnc(C)n2)c2[nH]cc(C(=O)C(=O)N3CCC(=C(c4ccccc4)c4nnco4)CC3)c12` [Example 131, 1-[4-(1-Phenyl-1-(1,3,4-oxadiazol-2-yl)-methylene)-piperidin-1-yl]-2-[4-methoxy-7-(3-methyl-1,2,4-triazol-1-yl)-6-azaindol-3-y]-ethane-1,2-dione]: less than 1 µM; for `COc1cnc(-c2nnc(C)[nH]2)c2[nH]cc(C(=O)C(=O)N3CCC(=C(c4ccccc4)c4nnc(C)o4)CC3)c12` [Example 139, 1-[4-(1-Phenyl-1-(5-methyl-1,3,4-oxadiazol-2-yl)-methylene)-piperidin-1-yl]-2-(4-methoxy-7-(5-methyl-1,3,4-triazol-2-yl)-6-azaindol-3-yl)-ethane-1,2-dione]: less than 1 µM. The same measure for `COc1ccc(C(=C2CCN(C(=O)C(=O)c3c[nH]c4c(OC)ncc(OC)c34)CC2)c2ccccc2)cc1` [Example 62]: less than 1 µM. The same measure for `COc1ncc(OC)c2c(C(=O)C(=O)N3CCC(=C(F)c4ccccc4)CC3)c[nH]c12` [Example 9]: less than 1 µM. For the molecule `COc1cnc(-n2ccc(C)n2)c2[nH]cc(C(=O)C(=O)N3CCC(=C(c4ccccc4)c4csc(C)n4)CC3)c12` [Example 100], the EC50 is less than 1 µM.

For `COc1ncc(OC)c2c(C(=O)C(=O)N3CCC(=C(C#CC4CC4)c4ccccc4)CC3)c[nH]c12` [Example 115, 1-[4-(1-Phenyl-1-(2-cyclopropylethyn-1-yl)-methylene)-piperidin-1-yl]-2-(4,7-dimethoxy-6-azaindol-3-yl)-ethane-1,2-dione], the EC50 was less than 1 µM. The same measure for `COCC#CC(=C1CCN(C(=O)C(=O)c2c[nH]c3c(OC)ncc(OC)c23)CC1)c1ccccc1` [Example 117, 1-[4-(1-Phenyl-1-(2-methoxymethylethyn-1-yl)-methylene)-piperidin-1-yl]-2-(4,7-dimethoxy-6-azaindol-3-yl)-ethane-1,2-dione]: less than 1 µM.

Source of the values: patent US20080188481A1 (priority 2002, published 2008).
